Assay results from ChEMBL document CHEMBL3885861, “Open TG-GATES”.

Organism: Rattus norvegicus
Assay: Open TG-GATES - Regimen: Daily Repeat
Format: toxicity, organism-based, Sprague-Dawley
Set-up: regimen Daily Repeat, gender Male, age 6 weeks
Details: in vivo, po, route gavage; for Bas / Eos / Fbg / Hb / Ht / Lym / MCHC / MCV / Mono / PT / Plat / RBC / Ret / WBC / Neu: tissue Blood
[1] = 0 mg/kg, 72 h, dose level Control, time 3 day
[2] = 0 mg/kg, 72 h, tissue Plasma, dose level Control, time 3 day
[3] = 0 mg/kg, […], dose level Control, time 7 day
[4] = 0 mg/kg, […], dose level Control, time 14 day
[5] = 0 mg/kg, […], dose level Control, time 28 day
[6] = 0 mg/kg, […], tissue Plasma, dose level Control, time 7 day
[7] = 0 mg/kg, […], tissue Plasma, dose level Control, time 14 day
[8] = 0 mg/kg, […], tissue Plasma, dose level Control, time 28 day
[9] = 100 mg/kg, 72 h, dose level Low, time 3 day

O=C(O)c1cccnc1 [NIACIN]
TERMINAL_BW [1]: 241.1 g | Bas [1]: 0% | Eos [1]: 0.8% | Fbg [1]: 321 mg/dL | Hb [1]: 12.8 g/dL | Ht [1]: 38.2% | Lym [1]: 81.2% | MCHC [1]: 33.5% | MCV [1]: 62.4 fL | Mono [1]: 3% | PT [1]: 15.9 s | Plat [1]: 125.7 x10_4/uL | RBC [1]: 612.4 x10_4/ul | Ret [1]: 7.8% | WBC [1]: 116.2 x10_2/uL | ALP [2]: 1807.6 IU/L | ALT [2]: 48 IU/L | AST [2]: 73.2 IU/L | CRE [2]: 0.2 mg/dL | Ca [2]: 10.7 mg/dL | Cl [2]: 104.2 meq/L | DBIL [2]: 0 mg/dL | GLC [2]: 201.8 mg/dL | IP [2]: 7.7 mg/dL | K [2]: 4.4 meq/L | LDH [2]: 161.4 IU/L | Na [2]: 139.2 meq/L | PL [2]: 151.6 mg/dL | RALB [2]: 3.1 g/dL | TBIL [2]: 0 mg/dL | TC [2]: 80 mg/dL | TG [2]: 92.8 mg/dL | TP [2]: 5.6 g/dL | gamma-GTP [2]: 1.4 IU/L | TERMINAL_BW [3]: 268.8 g | TERMINAL_BW [4]: 327.5 g | TERMINAL_BW [5]: 405.7 g | Bas [3]: 0% | Eos [3]: 1% | Fbg [3]: 334.8 mg/dL | Ht [3]: 41.3% | Lym [3]: 78.2% | MCHC [3]: 34.3% | Mono [3]: 3.2% | Neu [3]: 16.8% | PT [3]: 16.5 s | Plat [3]: 116.1 x10_4/uL | RBC [3]: 681 x10_4/ul | Ret [3]: 5.5% | WBC [3]: 120.8 x10_2/uL | Bas [4]: 0% | Eos [4]: 1% | Fbg [4]: 329 mg/dL | Ht [4]: 41.5% | Lym [4]: 77.8% | MCHC [4]: 34.2% | MCV [4]: 60.4 fL | Mono [4]: 2.6% | Neu [4]: 17% | PT [4]: 15.9 s | Plat [4]: 115.7 x10_4/uL | RBC [4]: 688.8 x10_4/ul | Ret [4]: 5.1% | WBC [4]: 127.5 x10_2/uL | Bas [5]: 0% | Eos [5]: 1.2% | Fbg [5]: 331.4 mg/dL | Hb [5]: 15 g/dL | Ht [5]: 42.7% | Lym [5]: 80.6% | MCHC [5]: 35.2% | MCV [5]: 56.6 fL | Mono [5]: 2% | Neu [5]: 15% | PT [5]: 16.5 s | Plat [5]: 89.6 x10_4/uL | RBC [5]: 754.4 x10_4/ul | Ret [5]: 3% | WBC [5]: 119.1 x10_2/uL | ALP [6]: 1431.4 IU/L | ALT [6]: 37.2 IU/L | AST [6]: 67 IU/L | CRE [6]: 0.1 mg/dL | Ca [6]: 10.8 mg/dL | Cl [6]: 105.2 meq/L | DBIL [6]: 0 mg/dL | GLC [6]: 190.4 mg/dL | IP [6]: 7.4 mg/dL | K [6]: 4.2 meq/L | LDH [6]: 155.6 IU/L | Na [6]: 139.8 meq/L | PL [6]: 160.4 mg/dL | RALB [6]: 3 g/dL | TBIL [6]: 0 mg/dL | TC [6]: 78.6 mg/dL | TG [6]: 130 mg/dL | TP [6]: 5.7 g/dL | gamma-GTP [6]: 1.6 IU/L | ALP [7]: 1595.6 IU/L | AST [7]: 68 IU/L | CRE [7]: 0.2 mg/dL | Ca [7]: 10.6 mg/dL | Cl [7]: 104.2 meq/L | DBIL [7]: 0 mg/dL | GLC [7]: 198.2 mg/dL | IP [7]: 7.1 mg/dL | K [7]: 4 meq/L | LDH [7]: 163.6 IU/L | Na [7]: 138 meq/L | PL [7]: 156 mg/dL | RALB [7]: 3.1 g/dL | TBIL [7]: 0.006 mg/dL | TC [7]: 75.6 mg/dL | TG [7]: 144.2 mg/dL | TP [7]: 5.9 g/dL | gamma-GTP [7]: 1 IU/L | ALP [8]: 1086.6 IU/L | ALT [8]: 37.4 IU/L | AST [8]: 63.8 IU/L | BUN [8]: 17.8 mg/dL | CRE [8]: 0.2 mg/dL | Ca [8]: 10.1 mg/dL | Cl [8]: 106.4 meq/L | DBIL [8]: 0 mg/dL | GLC [8]: 214.4 mg/dL | IP [8]: 6.9 mg/dL | K [8]: 4.2 meq/L | LDH [8]: 150.6 IU/L | Na [8]: 142.8 meq/L | PL [8]: 149.4 mg/dL | RALB [8]: 3.1 g/dL | TBIL [8]: 0.012 mg/dL | TC [8]: 76.6 mg/dL | TG [8]: 121 mg/dL | TP [8]: 5.9 g/dL | gamma-GTP [8]: 2.4 IU/L | TERMINAL_BW [9]: 239.7 g | Bas [9]: 0% | Eos [9]: 1.2%
